Measurements as given in the NIST ThermoML archive (doi:10.1016/j.fluid.2006.04.014).
± gives the expanded uncertainty stated by the source.

Conditions: Liquid, Closed cell (Static) method

## FCC(F)(F)F [1,1,1,2-tetrafluoroethane]
263.15 K
  vapor or sublimation pressure: 202.6 ± 2.9 kPa
268.15 K
  vapor or sublimation pressure: 245.5 ± 3.5 kPa
273.15 K
  vapor or sublimation pressure: 294.12 ± 4.2 kPa
283.15 K
  vapor or sublimation pressure: 416.6 ± 5.9 kPa

## CCF [fluoroethane]
253.15 K
  vapor or sublimation pressure: 216.2 ± 2.2 kPa
258.15 K
  vapor or sublimation pressure: 261.4 ± 2.6 kPa
263.15 K
  vapor or sublimation pressure: 311.9 ± 3.2 kPa
265.65 K
  vapor or sublimation pressure: 342.3 ± 3.5 kPa
268.15 K
  vapor or sublimation pressure: 372.2 ± 3.8 kPa
270.65 K
  vapor or sublimation pressure: 405.3 ± 4.1 kPa
273.15 K
  vapor or sublimation pressure: 438.1 ± 4.4 kPa
275.15 K
  vapor or sublimation pressure: 468.9 ± 4.7 kPa
278.15 K
  vapor or sublimation pressure: 517.1 ± 5.2 kPa
281.15 K
  vapor or sublimation pressure: 567.1 ± 5.7 kPa
283.15 K
  vapor or sublimation pressure: 602.9 ± 6.1 kPa
285.65 K
  vapor or sublimation pressure: 650.2 ± 6.6 kPa
288.15 K
  vapor or sublimation pressure: 699 ± 7.1 kPa
290.65 K
  vapor or sublimation pressure: 752.4 ± 7.6 kPa
293.15 K
  vapor or sublimation pressure: 808.2 ± 8.2 kPa
295.65 K
  vapor or sublimation pressure: 866 ± 8.8 kPa
298.15 K
  vapor or sublimation pressure: 924.2 ± 9.3 kPa
300.65 K
  vapor or sublimation pressure: 990.3 ± 10 kPa
303.15 K
  vapor or sublimation pressure: 1051.4 ± 11 kPa
305.65 K
  vapor or sublimation pressure: 1121.5 ± 11 kPa
308.15 K
  vapor or sublimation pressure: 1192.8 ± 12 kPa
310.65 K
  vapor or sublimation pressure: 1269.5 ± 13 kPa
313.15 K
  vapor or sublimation pressure: 1348.6 ± 14 kPa
315.65 K
  vapor or sublimation pressure: 1428.6 ± 14 kPa
318.5 K
  vapor or sublimation pressure: 1516.5 ± 15 kPa
320.65 K
  vapor or sublimation pressure: 1607.1 ± 16 kPa
323.15 K
  vapor or sublimation pressure: 1703.9 ± 17 kPa
